The molecules below were run against human CXCR3-A receptor (Homo sapiens (Human), UniProt P49682) (assay: 125I-CXCL10 competition radioligand binding assay). Conditions: displacement of 125I-CXCL10 from membranes of CHO cells expressing human recombinant CXCR3-A.
In short: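 Membranes from a recombinant cell line expressing human CXCR3-A (10-20 μg protein) were incubated with 125I-CXCL10 and test compound for 60 min at 25° C, then filtered onto PEI-soaked GF/B filters and gamma-counted. IC50 and Hill slope came from four-parameter nonlinear fitting of competition curves.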

Sequence of human CXCR3-A receptor (P49682 whole entry): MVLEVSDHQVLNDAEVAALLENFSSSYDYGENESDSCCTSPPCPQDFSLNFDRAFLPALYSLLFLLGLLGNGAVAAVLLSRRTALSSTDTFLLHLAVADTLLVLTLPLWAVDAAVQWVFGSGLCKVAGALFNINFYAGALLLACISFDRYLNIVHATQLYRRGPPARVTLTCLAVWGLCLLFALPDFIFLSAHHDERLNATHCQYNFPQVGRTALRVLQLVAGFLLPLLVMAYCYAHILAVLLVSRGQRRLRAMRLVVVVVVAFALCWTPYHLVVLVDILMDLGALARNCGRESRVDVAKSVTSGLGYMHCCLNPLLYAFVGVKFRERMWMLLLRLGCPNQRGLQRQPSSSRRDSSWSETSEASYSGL

SMILES	IC50
COc1cc(CN(C[C@H]2CC[C@H](C(=O)O)CC2)[C@H]2CCc3cc(Cl)c(Cl)cc32)ccc1OCCN1C(=O)CCC1=O [Example 74, trans-4-[(((S)-5,6-Dichloro-indan-1-yl)-{4-[2-(2,5-dioxo-pyrrolidin-1-yl)-ethoxy]-3-methoxy-benzyl}-amino)-methyl]-cyclohexanecarboxylic acid]	0.35 µM
CCc1cc(CN(C[C@H]2CC[C@H](C(=O)O)CC2)[C@H](C)c2ccc(Cl)c(F)c2)ccc1OCCN1C(=O)CCC1=O [Example 90, trans-4-[([(R)-1-(4-Chloro-3-fluoro-phenyl)-ethyl]-{4-[2-(2,5-dioxo-pyrrolidin-1-yl)-ethoxy]-3-ethyl-benzyl}-amino)-methyl]-cyclohexanecarboxylic acid]	0.494 µM
COc1cc(CN(CC2CC(C(=O)O)C2)[C@H]2CCc3cc(Cl)ccc32)ccc1OCCN1C(=O)CCC1=O (stereo partly drawn) [Example 158, 3-[(((S)-5-Chloro-indan-1-yl)-{4-[2-(2,5-dioxo-pyrrolidin-1-yl)-ethoxy]-3-methoxy-benzyl}-amino)-methyl]-cyclobutanecarboxylic acid]	1.06 µM
COc1cc(CN(C[C@H]2CC[C@H](C(=O)O)CC2)[C@H]2CCc3cc(Cl)ccc32)ccc1OCCN1C(=O)CC2(CCCC2)CC1=O [Example 147, 4-[(((S)-5-Chloro-indan-1-yl)-{4-[2-(7,9-dioxo-8-aza-spiro[4.5]dec-8-yl)-ethoxy]-3-methoxy-benzyl}-amino)-methyl]-cyclohexanecarboxylic acid]	7 µM
COc1cc(CN([C@H]2C[C@@H](C(=O)O)C2)[C@@H](C)c2ccc3c(c2)CCO3)ccc1OCCn1c(=O)ccn(C)c1=O [Example 123, cis-3-([(S)-1-(2,3-Dihydro-benzofuran-5-yl)-ethyl]-{3-methoxy-4-[2-(3-methyl-2,6-dioxo-3,6-dihydro-2H-pyrimidin-1-yl)-ethoxy]-benzyl}-amino)-cyclobutanecarboxylic acid]	7 µM
CCc1cc(CN(C[C@H]2CC[C@H](C(=O)O)CC2)C2CCc3c2ccc(F)c3Cl)ccc1OCCN1C(=O)CCC1=O (stereo partly drawn) [Example 96, trans-4-[((4-Chloro-5-fluoro-indan-1-yl)-{4-[2-(2,5-dioxo-pyrrolidin-1-yl)-ethoxy]-3-ethyl-benzyl}-amino)-methyl]-cyclohexanecarboxylic acid]	0.443 µM
Cc1cc(CN(C2CCc3cc(Cl)ccc32)[C@H]2C[C@@H](C(=O)O)C2)ccc1OCCN1C(=O)CCC1=O (stereo partly drawn) [Example 133, cis-3-((5-Chloro-indan-1-yl)-{4-[2-(2,5-dioxo-pyrrolidin-1-yl)-ethoxy]-3-methyl-benzyl}-amino)-cyclobutanecarboxylic acid]	1.64 µM
COc1cc(CN(C[C@H]2CC[C@H](C(=O)O)CC2)C2CCc3cc(F)c(Cl)cc32)ccc1OCCN1C(=O)CCC1=O (stereo partly drawn) [Example 94, trans-4-[((6-Chloro-5-fluoro-indan-1-yl)-{4-[2-(2,5-dioxo-pyrrolidin-1-yl)-ethoxy]-3-methoxy-benzyl}-amino)-methyl]-cyclohexanecarboxylic acid]	0.63 µM
Cc1cc(CN(C(C)c2ccc(Cl)c(Cl)c2)[C@H]2C[C@@H](C(=O)O)C2)ccc1OCCN1C(=O)CCC1=O (stereo partly drawn) [Example 138, cis-3-([1-(3,4-Dichloro-phenyl)-ethyl]-{4-[2-(2,5-dioxo-pyrrolidin-1-yl)-ethoxy]-3-methyl-benzyl}-amino)-cyclobutanecarboxylic acid]	0.67 µM

The remaining lines, values ahead:

IC50	SMILES
0.152 µM	COc1cc(CN(C(C)c2ccc3c(c2)CCO3)[C@H]2C[C@@H](C(=O)O)C2)ccc1OCCn1c(=O)ccn(C)c1=O (stereo partly drawn) [Example 121, cis-3-([1-(2,3-Dihydro-benzofuran-5-yl)-ethyl]-{3-methoxy-4-[2-(3-methyl-2,6-dioxo-3,6-dihydro-2H-pyrimidin-1-yl)-ethoxy]-benzyl}-amino)-cyclobutanecarboxylic acid]
0.02 µM	COc1cc(CN(C[C@H]2CC[C@H](C(=O)O)CC2)[C@H](C)c2ccc(Cl)cc2)ccc1OCCN1C(=O)CCC1=O [Example 6, trans-4-[([(R)-1-(4-Chloro-phenyl)-ethyl]-{4-[2-(2,5-dioxo-pyrrolidin-1-yl)-ethoxy]-3-methoxy-benzyl}-amino)-methyl]-cyclohexanecarboxylic acid]
0.085 µM	CCc1cc(CN(C[C@H]2CC[C@H](C(=O)O)CC2)[C@H]2CCc3c2ccc(Cl)c3Cl)ccc1OCCN1C(=O)CCC1=O [Example 86, trans-4-[(((S)-4,5-Dichloro-indan-1-yl)-{4-[2-(2,5-dioxo-pyrrolidin-1-yl)-ethoxy]-3-ethyl-benzyl}-amino)-methyl]-cyclohexanecarboxylic acid]
0.245 µM	CCc1ccc(C(C)N(Cc2ccc(OCCN3C(=O)CCC3=O)c(OC)c2)C[C@H]2CC[C@H](C(=O)O)CC2)cc1 (stereo partly drawn) [Example 81, trans-4-({{4-[2-(2,5-Dioxo-pyrrolidin-1-yl)-ethoxy]-3-methoxy-benzyl}-[1-(4-ethyl-phenyl)-ethyl]-amino}-methyl)-cyclohexanecarboxylic acid]
0.157 µM	COc1cc(CN(C[C@H]2CC[C@H](C(=O)O)CC2)[C@@H](C)c2ccc(Cl)cc2)ccc1CCCN1C(=O)CN(C)C1=O [Example 51, trans-4-[([(S)-1-(4-Chloro-phenyl)-ethyl]-{3-methoxy-4-[3-(3-methyl-2,5-dioxo-imidazolidin-1-yl)-propyl]-benzyl}-amino)-methyl]-cyclohexanecarboxylic acid]
0.154 µM	C[C@@H](c1ccc(Cl)cc1)N(Cc1ccc(OCCN2C(=O)CCC2=O)c(F)c1)C[C@H]1CC[C@H](C(=O)O)CC1 [Example 73, trans-4-[([(S)-1-(4-Chloro-phenyl)-ethyl]-{4-[2-(2,5-dioxo-pyrrolidin-1-yl)-ethoxy]-3-fluoro-benzyl}-amino)-methyl]-cyclohexanecarboxylic acid]
0.064 µM	COc1cc(CN(C[C@H]2CC[C@H](C(=O)O)CC2)[C@@H](C)c2ccc(Cl)c(C)c2)ccc1OCCN1C(=O)CCC1=O [Example 26, trans-4-[([(S)-1-(4-Chloro-3-methyl-phenyl)-ethyl]-{4-[2-(2,5-dioxo-pyrrolidin-1-yl)-ethoxy]-3-methoxy-benzyl}-amino)-methyl]-cyclohexanecarboxylic acid]
0.177 µM	COc1cc(CN(C[C@H]2CC[C@H](C(=O)O)CC2)C2CCc3cc(Cl)ccc32)ccc1OCCN1C(=O)CN(C)C1=O (stereo partly drawn) [Example 52, trans-4-[((5-Chloro-indan-1-yl)-{3-methoxy-4-[2-(3-methyl-2,5-dioxo-imidazolidin-1-yl)-ethoxy]-benzyl}-amino)-methyl]-cyclohexanecarboxylic acid]
0.121 µM	CCc1cc(CN(C[C@H]2CC[C@H](C(=O)O)CC2)[C@@H](C)c2ccc(Cl)c(F)c2)ccc1OCCN1C(=O)CCC1=O [Example 91, trans-4-[([(S)-1-(4-Chloro-3-fluoro-phenyl)-ethyl]-{4-[2-(2,5-dioxo-pyrrolidin-1-yl)-ethoxy]-3-ethyl-benzyl}-amino)-methyl]-cyclohexanecarboxylic acid]
0.143 µM	CCC(c1ccc(Cl)cc1)N(Cc1ccc(OCCn2c(=O)ccn(C)c2=O)c(OC)c1)C[C@H]1CC[C@H](C(=O)O)CC1 (stereo partly drawn) [Example 68, trans-4-[([1-(4-Chloro-phenyl)-propyl]-{3-methoxy-4-[2-(3-methyl-2,6-dioxo-3,6-dihydro-2H-pyrimidin-1-yl)-ethoxy]-benzyl}-amino)-methyl]-cyclohexanecarboxylic acid]
0.032 µM	Cc1cc(CN(C[C@H]2CC[C@H](C(=O)O)CC2)[C@H](C)c2ccc(Cl)cc2)ccc1OCCN1C(=O)CCC1=O [Example 9, trans-4-[([(R)-1-(4-Chloro-phenyl)-ethyl]-{4-[2-(2,5-dioxo-pyrrolidin-1-yl)-ethoxy]-3-methyl-benzyl}-amino)-methyl]-cyclohexanecarboxylic acid]
0.045 µM	CCc1cc(CN(C[C@H]2CC[C@H](C(=O)O)CC2)[C@@H](C)c2ccc(Cl)cc2)ccc1OCCN1C(=O)CCC1=O [Example 75, trans-4-[([(S)-1-(4-Chloro-phenyl)-ethyl]-{4-[2-(2,5-dioxo-pyrrolidin-1-yl)-ethoxy]-3-ethyl-benzyl}-amino)-methyl]-cyclohexanecarboxylic acid]
0.071 µM	CCC(c1ccc(Cl)cc1)N(Cc1ccc(OCCN2C(=O)CCC2=O)c(OC)c1)C[C@H]1[C@H](C(=O)O)C1(C)C (stereo partly drawn) [Example 117, (1S,3S)-3-[([1-(4-Chloro-phenyl)-propyl]-{4-[2-(2,5-dioxo-pyrrolidin-1-yl)-ethoxy]-3-methoxy-benzyl}-amino)-methyl]-2,2-dimethyl-cyclopropanecarboxylic acid]
0.104 µM	COc1cc(CN(C(C)c2ccc(Cl)c(Cl)c2)[C@H]2C[C@@H](C(=O)O)C2)ccc1OCCN1C(=O)CCC1=O (stereo partly drawn) [Example 137, cis-3-([1-(3,4-Dichloro-phenyl)-ethyl]-{4-[2-(2,5-dioxo-pyrrolidin-1-yl)-ethoxy]-3-methoxy-benzyl}-amino)-cyclobutanecarboxylic acid]
0.223 µM	COc1cc(CN(C[C@@H]2CC[C@@H](C(=O)O)C2)[C@@H](C)c2ccc(Cl)cc2)ccc1OCCN1C(=O)CCC1=O [Example 99, (1R,3R)-3-[([(S)-1-(4-Chloro-phenyl)-ethyl]-{4-[2-(2,5-dioxo-pyrrolidin-1-yl)-ethoxy]-3-methoxy-benzyl}-amino)-methyl]-cyclopentanecarboxylic acid]
0.068 µM	COc1cc(CN(C[C@H]2CC[C@H](C(=O)O)CC2)C2CCc3c2ccc(Cl)c3C)ccc1OCCN1C(=O)CCC1=O (stereo partly drawn) [Example 43, trans-4-[((5-Chloro-4-methyl-indan-1-yl)-{4-[2-(2,5-dioxo-pyrrolidin-1-yl)-ethoxy]-3-methoxy-benzyl}-amino)-methyl]-cyclohexanecarboxylic acid]

Same assay, conditions: read-out: % at 10 μM; at 10 μM; displacement of 125I-CXCL10

inhibition at 10 µM	SMILES
26%	COc1cc(CN([C@H]2C[C@H](C(=O)O)C2)[C@H](C)c2ccc3c(c2)CCC3)ccc1OCCn1c(=O)ccn(C)c1=O [Example 160, trans-3-(((R)-1-Indan-5-yl-ethyl)-{3-methoxy-4-[2-(3-methyl-2,6-dioxo-3,6-dihydro-2H-pyrimidin-1-yl)-ethoxy]-benzyl}-amino)-cyclobutanecarboxylic acid]
